Results on 23 compounds are retold here after ChEMBL document CHEMBL4340571, “Investigation of flexibility of neuraminidase 150-loop using tamiflu derivatives in influenza A viruses H1N1 and H5N1” (Bioorg Med Chem, 2019).

Test [1] can be described thus: Inhibition of Influenza A virus (A/California/07/2009(H1N1)) Neuraminidase N1 at pH 7.4 by DIANA assay.
Test [2] can be described thus: Selectivity index, ratio of Ki for inhibition of Influenza A virus (A/California/07/2009(H1N1)) Neuraminidase N1 by DIANA assay to Ki for inhibition of influenza A virus chicken/Nakorn- Patom/Thailand/CU-K2-2004 Neuraminidase N1 by DIANA assay.
A short description of test [3]: Inhibition of Influenza A virus (A/California/07/2009(H1N1)) Neuraminidase N1 at pH 6.15 using 4-MUNANA substrate incubated for 20 mins by fluorometric assay.

By Ki is commonly meant a dissociation constant, usually derived from enzyme kinetics or from competition with a known ligand. Low values mean tighter binding, high ones weaker binding.

In turn, `CCC(CC)O[C@@H]1C=C(C(=O)O)C[C@H](NCc2cn(CC(=O)N(C)C)nn2)[C@H]1NC(C)=O` yielded a Ki in test [1] of 5.9 µM. Regarding `CCC(CC)O[C@@H]1C=C(C(=O)O)C[C@H](n2cc(-c3ccsc3)nn2)[C@H]1NC(C)=O`, the affinity in test [1] corresponds to a Ki of 16 µM. Besides, the Ratio Ki in test [2] was 2 to 4.

`CCC(CC)O[C@@H]1C=C(C(=O)O)C[C@H](n2cc(CNc3cc(F)ccc3OC)nn2)[C@H]1NC(C)=O` showed a Ki in test [1] of 22 µM. The Ratio Ki in test [2] lay within 2 to 4. `CCC(CC)O[C@@H]1C=C(C(=O)O)C[C@H](n2cc(CO)nn2)[C@H]1NC(C)=O`: the inhibition constant Ki in test [1] worked out at 12 µM; in test [3] it was 0.47 µM. In addition, the Ratio Ki in test [2] lay within 2 to 4. As to `CCC(CC)O[C@@H]1C=C(C(=O)O)C[C@H](n2cc(C[C@@]3(C(=O)O)CCCN3)nn2)[C@H]1NC(C)=O`, the Ki in test [1] was 98 µM. Moreover, the Ratio Ki in test [2] was in the range of 2 to 4.

Turning to `CCC(CC)O[C@@H]1C=C(C(=O)O)C[C@H](n2cc(C[C@H](N)C(=O)O)nn2)[C@H]1NC(C)=O`, the affinity in test [1] corresponds to a Ki of 64 µM. The Ratio Ki in test [2] is 2 to 4. `CCC(CC)O[C@@H]1C=C(C(=O)O)C[C@H](NCc2cn(CC(C)(CO)CO)nn2)[C@H]1NC(C)=O` registered a Ki in test [1] of 0.89 µM. For `CCC(CC)O[C@@H]1C=C(C(=O)O)C[C@H](n2cc(CNc3cccc(C(F)(F)F)c3)nn2)[C@H]1NC(C)=O`, the Ki is 4.2 µM in test [1] and 0.47 µM in test [3]. In test [2], the Ratio Ki fell in the range of 2 to 4. Compound `CCC(CC)O[C@@H]1C=C(C(=O)O)C[C@H](n2cc(CNc3ccc(C(N)=O)c(C(F)(F)F)c3)nn2)[C@H]1NC(C)=O` displayed a Ki in test [1] of 14 µM. Moreover, in test [2], the Ratio Ki was 2 to 4.

As for `CCC(CC)O[C@@H]1C=C(C(=O)O)C[C@H](NCc2cn(CC(=O)NC)nn2)[C@H]1NC(C)=O`, the Ki in test [1] stood at 1.2 µM; in test [3], 0.87 µM.

As to `CCC(CC)O[C@@H]1C=C(C(=O)O)C[C@H](NCc2cn(CC(=O)O)nn2)[C@H]1NC(C)=O`, the Ki in test [1] was determined as 2.8 µM. This lies in the single-digit micromolar range. For the compound `CCC(CC)O[C@@H]1C=C(C(=O)O)C[C@H](N)[C@H]1NC(C)=O` [OSELTAMIVIR CARBOXYLATE], the Ki worked out at 0.031 µM in test [1] and 0.024 µM in test [3]. In test [1], `CCC(CC)O[C@@H]1C=C(C(=O)O)C[C@H](NCc2cn(CCN3CCS(=O)(=O)CC3)nn2)[C@H]1NC(C)=O` had a Ki of 12 µM. `CCOC(=O)C1=C[C@@H](OC(CC)CC)[C@H](NC(C)=O)[C@@H](N)C1` [OSELTAMIVIR PHOSPHATE]: the affinity in test [1], expressed as Ki, was 2 µM. In test [1], `CCC(CC)O[C@@H]1C=C(C(=O)O)C[C@H](n2cc(COCC(C)(CO)CO)nn2)[C@H]1NC(C)=O` showed a Ki of 180 µM. The Ratio Ki in test [2] lay within 2 to 4. The matching figures for `CCC(CC)O[C@@H]1C=C(C(=O)O)C[C@H](n2cc(CNc3ccccc3C(N)=O)nn2)[C@H]1NC(C)=O`: 13 µM and 2 to 4. On to `CCC(CC)O[C@@H]1C=C(C(=O)O)C[C@H](n2cc(CNc3ccccc3)nn2)[C@H]1NC(C)=O`, for which the affinity in test [1] corresponds to a Ki of 19 µM. Also, the Ratio Ki in test [2] was 2 to 4. `CCC(CC)O[C@@H]1C=C(C(=O)O)C[C@H](N=[N+]=[N-])[C@H]1NC(C)=O` registered a Ki in test [3] of 0.91 µM. This lies in the sub-micromolar range.

For the compound `CCC(CC)O[C@@H]1C=C(C(=O)O)C[C@H](NCc2cn(CCO)nn2)[C@H]1NC(C)=O`, the Ki was 0.75 µM in test [1] and 0.65 µM in test [3]. Compound `CCC(CC)O[C@H]1CC(C(=O)O)=C[C@@H](n2cc(CN3CCS(=O)(=O)CC3)nn2)[C@@H]1NC(C)=O` returned an inhibition constant (Ki) in test [1] of 340 µM. Also, the Ratio Ki in test [2] fell in the range of 2 to 4. `CCC(CC)O[C@@H]1C=C(C(=O)O)C[C@H](n2cc(CN(C)c3ccc(OC)cc3)nn2)[C@H]1NC(C)=O` showed a Ki in test [1] of 19 µM. Further, the Ratio Ki in test [2] was 2 to 4. `CCC(CC)O[C@@H]1C=C(C(=O)O)C[C@H](n2cc(CNc3ccc(NC(C)=O)cc3)nn2)[C@H]1NC(C)=O` came in with a Ki in test [1] of 9.1 µM. Also, the Ratio Ki in test [2] was 2 to 4. On to `CCC(CC)O[C@@H]1C=C(C(=O)O)C[C@H](n2cc(-c3cccs3)nn2)[C@H]1NC(C)=O`, for which the Ki in test [1] is 20 µM. In addition, the Ratio Ki in test [2] fell in the range of 2 to 4.
